Patent publication US20260083703A1, “INDOLINE DERIVATIVES AS SEROTONERGIC AGENTS USEFUL FOR THE TREATMENT OF DISORDERS RELATED THERETO” (MINDSET PHARMA INC., priority 2022, published 2026)
Several values for one entry are separate records, joined by “and”; a condition that tells them apart may be missing. Identical values can stand only once.

Experiments:
Male, C57BL/6J mice = assay: Mouse head twitch; format: in vivo
Method: The effect of different doses of representative compounds of Formula I are evaluated on head-twitch response (HTR) and other behavioural responses as behavior-based models of psychedelic activity.
Male, C57BL/6J mice (body weight range 20-30 g) were dosed with the appropriate dose of test article, and following a 1-minute pre-treatment time, placed in individual observation chambers. Animals were visually assessed for the incidence head twitches continuously over a 1 hr period. Head twitches were defined as a rapid jerk of the head which was not elicited by an external tactile stimulus (Come and Pickering, Psychopharmacologia, 1967, 11(1): 65-78). Each head twitch was individually counted by a trained observer, and the data expressed as the mean±SEM of 6-10 mice per group. Mice were used in a single experiment only.

[1] = Liver microsomes stability, mouse; conditions: for CLint scaled at 2 μM / half-life at 2 μM / microsomal CLint at 2 μM: male, microsomes
[2] = Liver microsomes stability, human; conditions: for Predicted hepatic CL / Remaining Percentage / CLint scaled at 2 μM / half-life at 2 μM / microsomal CLint at 2 μM: human; for CLint scaled at 2 μM / half-life at 2 μM / microsomal CLint at 2 μM: pooled human liver microsomes
[3] = Liver microsomes stability, rat; conditions: for CLint scaled at 2 μM / half-life at 2 μM / microsomal CLint at 2 μM: rat liver microsomes
[4] = molecular target: T1, human 5-HT2A (h5-HT2A) receptor (Homo sapiens, UniProt P28223); assay: FLIPR assay, human 5-HT2A, agonist mode; format: cell-based
T1 construct: expressed in transfected cells; grown under G418 and hygromycin B selection
T1 sequence (P28223 whole entry): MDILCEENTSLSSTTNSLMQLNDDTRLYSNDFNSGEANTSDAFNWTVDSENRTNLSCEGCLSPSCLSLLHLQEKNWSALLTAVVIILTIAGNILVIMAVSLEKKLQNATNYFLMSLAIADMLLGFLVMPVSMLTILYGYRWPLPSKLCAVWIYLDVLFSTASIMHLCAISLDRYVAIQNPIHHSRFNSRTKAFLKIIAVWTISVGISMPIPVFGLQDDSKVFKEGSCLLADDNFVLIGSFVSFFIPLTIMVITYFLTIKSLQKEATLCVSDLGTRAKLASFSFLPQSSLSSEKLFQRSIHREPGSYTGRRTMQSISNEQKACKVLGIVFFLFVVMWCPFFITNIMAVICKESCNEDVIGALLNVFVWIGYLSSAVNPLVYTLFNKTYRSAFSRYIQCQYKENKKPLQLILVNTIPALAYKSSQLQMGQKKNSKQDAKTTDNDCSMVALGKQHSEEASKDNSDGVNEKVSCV
Method: I. Assessment of the Effect of Exemplary Compounds of Formula I Targeting on Human 5-HT2A (h5-HT2A) Receptor Under Agonist Mode:
I.c. Experimental Methods and Procedures: • 1. Cells were cultured in cell culture medium (DMEM containing 10% FBS, 1×penicillin-streptomycin 300 μg/ml G418 and 100 μg/ml hygromycin B) at 37° C., 5% (v/v) CO2. • 2. One day before the assays, the cells were detached using TrypLE™ Express and cells were counted using cell counter. Only cells with >85% viability were used for the assay. • 3. 20000 cells/well were seeded in 30 μl/well culture medium to a 384-well cell plate and cells were incubated overnight at 37° C., 5% (v/v) CO2. • 4. On the assay day, 2×dye solution was prepared following the manual of the FLIPR® Calcium 6 Assay Kit: i. The dye was diluted with assay buffer (20 mM HEPES in 1×HBSS, PH7.4); ii. Probenecid was added to the final concentration of 5 mM; iii. Vortex vigorously for 1-2 minutes. • 5. Medium was removed from cell plate by flicking the cell plate on towel papers. • 6. 10 μl of assay buffer and 10 μl of 2×dye solution was added to each well of the cell plate. • 7. The cell plate was placed on plate shaker, the plate was agitated at 600 rpm for 2 minutes. The plate was incubated at 37° C. for 2 hours followed by additional 15-minute incubation at 25° C. • 8. 3×compound in assay buffer was prepared: a. Reference compounds were diluted to required concentration with DMSO. The compounds were added to a 384-well compound plate; b. Serial dilutions were performed; c. 10 mM test compounds were added to the compound plate, and 3-fold serial dilutions were performed. d. Transfer 60 nl/well of compounds from source plate to a 384-well compound plate (Corning, 3657) by using an Echo; e. Add 20 μl/well assay buffer to the compound plate; f. Mix the plate on plate shaker for 2 mins; • 9. The cell plate, compound plate and tips were put into FLIPR, 10 μl of 3× compound was transferred to the cell plate per well with FLIPR.
• i. The normalized fluorescence reading (RFU) was calculated as shown below, where Fmax and Fmin stand for maximum and minimum of calcium signal during defined time window: RFU=Fmax−Fmin. • ii. Calculate the percentage activation using following equation:
[formula] • Iii. Calculate EC50 by fitting % activation against log of compound concentrations with Hill equation using XLfit.

SMILES | Predicted hepatic CL [1] | Remaining Percentage ([1]; With NADPH, 0 min) | Remaining Percentage ([1]; With NADPH, 30 min) | Remaining Percentage ([1]; With NADPH, 60 min) | Remaining Percentage ([1]; Without NADPH, 0 min) | Remaining Percentage ([1]; Without NADPH, 30 min) | Remaining Percentage ([1]; Without NADPH, 60 min) | CLint scaled at 2 μM [1] | half-life at 2 μM [1] | microsomal CLint at 2 μM [1] | Predicted hepatic CL [2] | Remaining Percentage ([2]; With NADPH, 0 min) | Remaining Percentage ([2]; With NADPH, 30 min) | Remaining Percentage ([2]; With NADPH, 60 min) | Remaining Percentage ([2]; Without NADPH, 0 min) | Remaining Percentage ([2]; Without NADPH, 30 min) | Remaining Percentage ([2]; Without NADPH, 60 min) | Predicted hepatic CL [3] | Remaining Percentage ([3]; With NADPH, 0 min) | Remaining Percentage ([3]; With NADPH, 30 min) | also measured
COc1ccc2c(c1)C(C[C@H]1CCCN1C)CN2 (stereo partly drawn) [(R)-I-54] | 70.39 mL/min/kg | 100.00% | 34.74% | 10.91% | 100.00% | 98.80% | 91.62% | 323 mL/min/kg | 18.8 min | 73.8 µL/min/mg | 13.52 mL/min/kg | 100.00% | 66.49% | 39.38% | 100.00% | 116.22% | 93.51% | 49.19 mL/min/kg | 100.00% | 2.28% | head twitch response (mean head twitches over 1 hr) (Male, C57BL/6J mice; 1 mg/kg SC): 0.7; head twitch response (mean head twitches over 1 hr) (Male, C57BL/6J mice; 3 mg/kg SC): 0.2; head twitch response (mean head twitches over 1 hr) (Male, C57BL/6J mice; 10 mg/kg SC): 1.2; head twitch response (mean head twitches over 1 hr) (Male, C57BL/6J mice; 30 mg/kg SC): 1.8; head twitch response (mean head twitches over 1 hr) (Male, C57BL/6J mice; 60 mg/kg SC): 0.8; dose of peak head twitch response (Male, C57BL/6J mice; SC): 30 mg/kg; head twitch response over the dose range tested (Male, C57BL/6J mice; SC, psilocybin 0.1-10, 5-MeO DMT 1-30, (R)-I-54 1-60 mg/kg): only a modest head twitch response; CLint scaled at 2 μM [2]: 39 mL/min/kg; half-life at 2 μM [2]: 44.6 min; microsomal CLint at 2 μM [2]: 31.1 µL/min/mg; Remaining Percentage ([3]; With NADPH, 60 min): 0.48%; Remaining Percentage ([3]; Without NADPH, 0 min): 100.00%; Remaining Percentage ([3]; Without NADPH, 30 min): 103.93%; Remaining Percentage ([3]; Without NADPH, 60 min): 97.75%; CLint scaled at 2 μM [3]: 452 mL/min/kg; half-life at 2 μM [3]: 5.5 min; microsomal CLint at 2 μM [3]: 252 µL/min/mg; EC50 [4]: 17 nM and 25 nM; 5-HT2A (FLIPR) RFU@10 μM [4]: 993 RFU and 990 RFU
COc1cccc2c1C(C[C@H]1CCCN1C)CN2 (stereo partly drawn) [(R)-I-94, 4-Methoxy-3-(((R)-I-methylpyrrolidin-2-yl)methyl)indoline] | >84.35 mL/min/kg | 100.00% | 0.84% | 0.29% | 100.00% | 109.64% | 106.02% | > 1340 mL/min/kg | < 4.51 min | > 307 µL/min/mg | 5.63 mL/min/kg | 100.00% | 100.93% | 83.11% | 100.00% | 108.38% | 98.20% | 19.77 mL/min/kg | 100.00% | 84.38% | CLint scaled at 2 μM [2]: 7.74 mL/min/kg; half-life at 2 μM [2]: 225 min; microsomal CLint at 2 μM [2]: 6.17 µL/min/mg; Remaining Percentage ([3]; With NADPH, 60 min): 59.71%; Remaining Percentage ([3]; Without NADPH, 0 min): 100.00%; Remaining Percentage ([3]; Without NADPH, 30 min): 104.88%; Remaining Percentage ([3]; Without NADPH, 60 min): 96.34%; CLint scaled at 2 μM [3]: 30.8 mL/min/kg; half-life at 2 μM [3]: 80.6 min; microsomal CLint at 2 μM [3]: 17.2 µL/min/mg; EC50 [4]: 9 nM; 5-HT2A (FLIPR) RFU@10 μM [4]: 545 RFU
COc1ccc2c(c1)C(C[C@H]1CCCN1)CN2 (stereo partly drawn) [(R)-I-165, 5-Methoxy-3-(((R)-pyrrolidin-2-yl)methyl)indoline] | 37.78 mL/min/kg | 100.00% | 90.44% | 63.99% | 100.00% | 100.70% | 117.77% | 65.1 mL/min/kg | 93.1 min | 14.9 µL/min/mg | 0.00 mL/min/kg | 100.00% | 111.72% | 114.92% | 100.00% | 99.07% | 85.51% | 31.82 mL/min/kg | 100.00% | 53.50% | T1/2 ([2]; human liver microsomes, 2 μM): ∞; Remaining Percentage ([3]; With NADPH, 60 min): 28.43%; Remaining Percentage ([3]; Without NADPH, 0 min): 100.00%; Remaining Percentage ([3]; Without NADPH, 30 min): 106.00%; Remaining Percentage ([3]; Without NADPH, 60 min): 119.73%; CLint scaled at 2 μM [3]: 75.1 mL/min/kg; half-life at 2 μM [3]: 33.1 min; microsomal CLint at 2 μM [3]: 41.9 µL/min/mg; EC50 [4]: 57 nM; 5-HT2A (FLIPR) RFU@10 μM [4]: 1,318 RFU
